Patent publication US6166290A, “Glutathione-S-conjugate transport in plants” (The Trustees of the University of Pennsylvania, priority 1997, dated 2000)
Several values for one entry are separate records, joined by “and”; a condition that tells them apart may be missing. Equal values may be shown once. Read-outs that look alike come from different tables or passages of the source.

Key:
[1] = biological target: T1, YCF1 (vacuolar membrane vesicles purified from DTY165 cells) (Saccharomyces cerevisiae, UniProt P39109); test: [3H]DNP-GS uptake by vacuolar membrane vesicles purified from DTY165 cells; assay type: biochemical; settings: for DNP-GS uptake as percentage of control plus the compound indicated: 10 min
T1 construct: endogenous in cells; host or cells: S. cerevisiae DTY165 (wild type YCF1), vacuolar membrane vesicles
T1 sequence (P39109 whole entry): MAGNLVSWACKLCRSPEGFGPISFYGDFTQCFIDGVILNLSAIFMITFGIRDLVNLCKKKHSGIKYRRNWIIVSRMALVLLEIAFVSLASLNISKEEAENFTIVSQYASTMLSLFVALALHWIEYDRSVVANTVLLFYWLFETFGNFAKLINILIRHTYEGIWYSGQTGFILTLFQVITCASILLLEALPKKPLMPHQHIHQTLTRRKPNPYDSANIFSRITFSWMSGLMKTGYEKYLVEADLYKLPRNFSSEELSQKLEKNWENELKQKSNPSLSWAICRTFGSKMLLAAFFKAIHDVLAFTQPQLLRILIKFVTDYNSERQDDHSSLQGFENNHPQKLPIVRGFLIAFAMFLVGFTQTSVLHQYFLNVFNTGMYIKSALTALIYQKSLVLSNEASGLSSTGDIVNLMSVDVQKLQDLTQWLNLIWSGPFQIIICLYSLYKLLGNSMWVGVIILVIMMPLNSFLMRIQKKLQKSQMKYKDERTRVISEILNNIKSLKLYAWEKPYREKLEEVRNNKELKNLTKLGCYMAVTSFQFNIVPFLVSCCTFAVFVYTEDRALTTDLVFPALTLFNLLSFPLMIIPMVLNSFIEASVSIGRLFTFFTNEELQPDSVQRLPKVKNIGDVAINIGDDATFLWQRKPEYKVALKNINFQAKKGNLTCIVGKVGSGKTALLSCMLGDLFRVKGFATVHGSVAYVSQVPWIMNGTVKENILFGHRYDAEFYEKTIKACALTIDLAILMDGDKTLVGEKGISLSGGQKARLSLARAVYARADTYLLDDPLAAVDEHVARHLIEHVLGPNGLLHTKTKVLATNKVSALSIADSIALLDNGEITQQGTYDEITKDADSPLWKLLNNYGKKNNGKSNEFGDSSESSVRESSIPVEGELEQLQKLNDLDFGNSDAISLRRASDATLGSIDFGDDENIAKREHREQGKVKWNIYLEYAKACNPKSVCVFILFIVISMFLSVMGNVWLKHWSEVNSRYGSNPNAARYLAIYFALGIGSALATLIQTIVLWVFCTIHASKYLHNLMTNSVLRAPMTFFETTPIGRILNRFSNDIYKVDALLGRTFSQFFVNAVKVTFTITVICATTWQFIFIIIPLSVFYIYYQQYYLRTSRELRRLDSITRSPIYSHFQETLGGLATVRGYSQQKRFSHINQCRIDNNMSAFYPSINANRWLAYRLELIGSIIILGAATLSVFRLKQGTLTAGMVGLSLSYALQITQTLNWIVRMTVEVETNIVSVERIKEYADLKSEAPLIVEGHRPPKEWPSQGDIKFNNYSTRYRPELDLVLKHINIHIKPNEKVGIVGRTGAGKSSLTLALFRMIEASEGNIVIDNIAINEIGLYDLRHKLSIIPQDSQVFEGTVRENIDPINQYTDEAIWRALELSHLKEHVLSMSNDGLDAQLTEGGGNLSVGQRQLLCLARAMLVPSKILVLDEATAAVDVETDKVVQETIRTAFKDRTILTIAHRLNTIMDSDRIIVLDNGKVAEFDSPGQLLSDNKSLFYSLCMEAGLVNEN
Experimental: (§1) For the routine preparation of vacuolar membrane vesicles, 15 ml of stationary phase cultures of DTY165 or DTY167 were diluted into 1-liter volumes of fresh YPD medium, grown for 24 hours at 30° C. to an OD600 nm of approximately 0.8 and collected by centrifugation. After washing with distilled water, the cells were converted to spheroplasts with Zymolyase 20T (ICN) (Kim et al., 1994, supra) and intact vacuoles were isolated by flotation centrifugation of spheroplast lysates on Ficoll 400 step gradients as described by Roberts et al. (1991, Methods. Enzymol. 194:644-661). Both the spheroplast lysis buffer and Ficoll gradients contained 2 mg/ml bovine serum albumin, 1 μg/ml aprotinin, 1 μg/ml leupeptin, 1 μg/ml pepstatin, and 1 mM PMSF to minimize proteolysis. The resulting vacuole fraction was vesiculated in 5 mM MgCl2, 25 mM KCl, 10 mM Tris-Mes (pH 6.9) containing 2 mg/ml bovine serum albumin, 1 μg/ml aprotinin, 1 μg/ml leupeptin, 1 μg/ml pepstatin, and 1 mM PMSF, pelleted by centrifugation at 37,000× g for 25 min, and resuspended in suspension medium (1.1 M glycerol, 2 mM dithiothreitol, 1 mM Tris-EGTA, 2 mg/ml bovine serum albumin, 1 μg/ml aprotinin, 1 μg/ml leupeptin, 1 μg/ml pepstatin, 1 mM PMSF, 5 mM Tris-Mes, pH 7.6) (Kim et al., 1995, J. Biol. Chem. 270:2630-2635).
(§2) Unless otherwise indicated, [^3 H]DNP-GS uptake was measured at 25° C. in 200 μl reaction volumes containing 3 mM ATP, 3 mM MgSO4, 5 μM gramicidin-D, 10 mM creatine phosphate, 16 units/ml creatine kinase, 50 mM KC 1, 1 mg/ml bovine serum albumin, 400 mM sorbitol, 25 mM Tris-Mes (pH 8.0), and 66.2 μM [^3 H]DNP-GS (8.7 mCi/mmol) (Li et al., 1995, supra). […] Uptake was initiated by the addition of vacuolar membrane vesicles (10-15 μg of membrane protein), brief mixing of the samples on a vortex mixer and uptake was then allowed to proceed for 1-60 minutes. Uptake was terminated by the addition of 1 ml of ice-cold wash medium (400 mM sorbitol, 3 mM Tris-Mes, pH 8.0) and vacuum filtration of the suspension through prewetted Millipore HA cellulose nitrate membrane filters (pore diameter, 0.45 μm). The filters were rinsed twice with 1 ml of ice-cold wash medium and air-dried, and radioactivity was determined by liquid scintillation counting in BCS mixture (Amersham Corp.). Nonenergized [^3 H]DNP-GS uptake and extravesicular solution trapped on the filters were enumerated by the same procedure except that ATP and Mg^2 +were omitted from the uptake medium.

[2] = system: vacuolar membrane vesicles purified from DTY167 cells (ycf1Δ mutant); assay type: biochemical, Saccharomyces cerevisiae; settings: for DNP-GS uptake as percentage of control plus the compound indicated: 10 min
Experimental: as §1, §2

[3] = system: vacuolar GS-X pump (vacuolar membrane vesicles, V. radiata hypocotyls); test: GS-conjugate uptake by vacuolar membrane vesicles from etiolated hypocotyls of V. radiata; assay type: biochemical, Vigna radiata; settings: 65 μM
Experimental: Values shown are means ±SE (n=3).
Vacuolar membrane vesicles were purified from etiolated hypocotyls of V. radiata cv.
Unless otherwise indicated, [^3 H]medicarpin or [3H]medicarpin-GS uptake was measured at 25° C. in 200 μl reaction volumes containing 3 mM ATP, 3 mM MgSO4, 10 mM creatine phosphate, 16 U/ml creatine kinase, 50 mM KCl, 0.1% (w/v) BSA, 400 mM sorbitol and 25 mM Tris-Mes buffer, pH 8.0. Uptake was initiated by the addition of 12 μl membrane vesicles (30-40 μg protein) and brief mixing of the samples on a vortex mixer. Uptake was terminated by the addition of 1 ml ice-cold wash medium (400 mM sorbitol, 3 mM Tris-Mes, pH 8.0) and vacuum filtration of the suspension through prewetted HA cellulose nitrate filters (pore diameter 0.45 μm). The filters were rinsed twice with a 1 ml ice-cold wash medium, air-dried and radioactivity was determined by liquid scintillation counting.

[4] = biological target: T1, YCF1 (vacuolar membrane vesicles purified from DTY165 cells); test: biochemical; assay type: biochemical
Experimental: (§3) In experiments involving cadmium transport, dithiothreitol and EGTA were removed from the suspension medium to prevent the attenuation of YCF1-dependent Cd^2+ transport otherwise exerted by these compounds. Vesiculated vacuolar membranes were subjected to three cycles of 50-fold dilution into simplified suspension medium (1.1 M glycerol, 5 mM Tris-Mes, pH 8.0), centrifugation at 100,000× g for 35 minutes and resuspension in the same medium before use.
(§4) Singly radiolabeled ^109 Cd.GSn and doubly radio-labeled ^109 Cd[^3 H].GS^n complexes were prepared by sequential gel-filtrationand anion-exchange chromatography of the reaction products generated by incubating 20 mM ^109 CdSO4 (78.4 mCi/mmol) with 40 mM GSH or 40 mM [^3 H]GSH (240 mCi/mmol) in 15 ml 10 mM phosphate buffer (pH 8.0) containing 150 mM KNO3 at 45° C. for 24 hours. For gel-filtration, 2 ml aliquots of the reaction mixture were applied to a column (40×1.5 cm ID) packed with water-equilibrated Sephadex G-1 5, eluted with deionized water and ^109 Cd and/or ^3 H in the fractions was measured by liquid scintillation counting. The fractions encompassed by each of the two ^109 Cd.GSn peaks identified were pooled, lyophilized and redissolved in 4 ml of loading buffer (5 mM Tris-Mes, pH 8.0). For anion-exchange chromatography, 0.5 ml aliquots of the resuspended lyophilizates from gel-filtration chromatography were applied to a Mono-Q HR5/5 column (Pharmacia) equilibrated with the same buffer. Elution was with a linear gradient of NaCl (0.5 ml/minute; 0-500 mM) dissolved in loading buffer. The individual fractions corresponding to the major peaks of ^109 Cd obtained from the Mono-Q column (one each for the peaks resolved by gel-filtration chromatography) were pooled, lyophilized and resuspended in 4 ml deionized water after liquid scintillation counting.
(§5) MgATP-energized, uncoupler-insensitive ^109 Cd^2+ uptake by vacuolar membrane vesicles was measured at 25° C. in 200 μl reaction volumes containing 3 mM ATP, 3 mM MgSO4, 5 μM gramicidin-D, 10 mM creatine phosphate, 16 units/ml creatine kinase, 50 mM KCl, 400 mM sorbitol, 25 mM Tris-Mes (pH 8.0) and the indicated concentrations of ^109 CdSO4, GSH or ^109 Cd- and/or ^3 H-labeled purified Cd.GSn complexes as described herein except that the wash media contained 100 μM CdSO4 in addition to sorbitol (400 mM) and Tris-Mes (3 mM, pH 8.0).

[5] = system: vacuolar membrane vesicles purified from DTY167 cells (ycf1Δ mutant); assay type: biochemical, Saccharomyces cerevisiae
Experimental: as §3, §4, §5

[6] = 66.2 μM DNP-GS, 3 mM MgATP (omitted with MgAMP-PNP), MgAMP-PNP 3 mM, bafilomycin A1 0.5 μM, FCCP 5 μM, gramicidin D 5 μM, NH4Cl 1 mM
[7] = 5 μM gramicidin D, read-out: I50 for MgATP-dependent, uncoupler-insensitive DNP-GS uptake
[8] = 50 μM (as Cd), 5 μM gramicidin-D
[9] = vacuolar membrane vesicles, 10 min

For Nc1ncnc2c1ncn2[C@@H]1O[C@H](COP(=O)(O)OP(=O)(O)NP(=O)(O)O)[C@@H](O)[C@H]1O [MgAMP-PNP], the “DNP-GS uptake plus the compound indicated” value [1, 6] was 2.5 ± 0.5 nmol/mg/10 minutes, the “DNP-GS uptake as percentage of control plus the compound indicated” value (from here on “DNP-GS uptake as percentage”) ([1]; as Table 1 concentrations) was 3.2% and the “DNP-GS uptake plus the compound indicated” value [2, 6] was 1.4 ± 0.3 nmol/mg/10 minutes. The “DNP-GS uptake as percentage” value ([2]; as Table 1 concentrations) was 9.1%.

COc1ccc2c(c1)OC1c3ccc(O)cc3OCC21 (centres unmarked) [medicarpin] was tested, and the “uptake in the presence of MgATP” value ([3]; 3 mM MgATP) was 16.7±3.6 nmol/mg/20 minutes and the “uptake in the absence of MgATP” value ([3]; -MgATP) was 7.4±1.3 nmol/mg/20 minutes.

In the case of CC[C@]1(O)C[C@@H]2CN(CCc3c([nH]c4ccccc34)[C@@](C(=O)OC)(c3cc4c(cc3OC)N(C)[C@H]3[C@@](O)(C(=O)OC)[C@H](OC(C)=O)[C@]5(CC)C=CCN6CC[C@]43[C@@H]65)C2)C1 [Vinblastine], the IC50 [1, 7] is reported as 89 µM and 88.8 µM and the IC50 [2, 7] is reported as over 500 µM.

In the case of mono(glutathionato)cadmium [LMW-Cd.GS], the “109Cd uptake of Mono-Q fraction” value [4, 8] is reported as 4.4 ± 0.8 nmol/mg/10 min, the “uptake of LMW-109Cd.GS” value ([4]; all of the concentrations examined) is reported as “negligible” and the “109Cd uptake of Mono-Q fraction” value [5, 8] is reported as 3.9 nmol/mg/10 min.

With N#CC(C#N)=NNc1ccc(OC(F)(F)F)cc1 [FCCP] the “DNP-GS uptake plus the compound indicated” value [1] was 47.4 ± 1.7 nmol/mg/10 minutes, the “DNP-GS uptake as percentage” value ([1]; dty165 vacuolar membrane vesicles) was 61.0 and the “DNP-GS uptake plus the compound indicated” value [2] was 6.4 ± 0.3 nmol/mg/10 minutes. The “DNP-GS uptake as percentage” value ([2]; dty167 vacuolar membrane vesicles) was 41.8, the “109Cd.GS2 uptake plus addition” value [4] was 62.2 ± 11.4 nmol/mg/10 minutes and the “decrease of MgATP-dependent Cd.GS2 uptake” value ([4]; vacuolar membrane vesicles) was 22%. For the same compound, the “109Cd.GS2 uptake as percentage of control” value [4, 9] was 58.8, the “109Cd.GS2 uptake plus addition” value [5] was 10.2 ± 1.6 nmol/mg/10 minutes and the “109Cd.GS2 uptake as percentage of control” value [5, 9] was 59.0.
